Measurements reported in patent publication US9512139B2, “Conformationally constrained, fully synthetic macrocyclic compounds” (POLYPHOR AG, priority 2009, dated 2016).

Key:
in vitro [1] = format: in vitro ADME, human; conditions: human, plasma, 10 µM; for Plasma Stability 240 min hum [% remain.]: 4 h
[2] = Metabolic stability assay, human microsomes; format: in vitro ADME; conditions: human, microsomes; for Metabolic Stability T½ [min] hum / Metabolic Stability 60 min hum [% remain.]: both, 10 µM; for Metabolic Stability 60 min hum [% remain.]: 1 h; for half-life at 10 µM: both sexes
Experimental: (§1) 4. Plasma and Metabolic Stability Assays
(§2) The assays were conducted according to literature precedents (F. P. Guengerich, Analysis and Characterization of Enzymes; in: Principles and Methods of Toxicology; A. W. Hayes (Ed.) Raven Press: New York, 1989, 777-813; R. Singh et al., In vitro metabolism of a potent HIV-protease inhibitor (141W94) using rat, monkey and human liver S9, Rapid Commun. Mass Spectrom. 1996, 10, 1019-1026).
(§3) Metabolic Stability Assay
(§4) Microsomes from a human 50 donor mixed gender pool and 1:1 mixtures of microsomes from CD-1 mouse single-gender pools are purchased from Celsis (Belgium). The enzymatic reaction is performed in a buffer containing an NADPH regeneration system and microsomes with the following end concentrations: 100 mM potassium phosphate buffer (all from Sigma), 1 mg/mL glucose-6-phosphate, 1 mg/mL β-nicotinamide adenine dinucleotide phosphate (NADP), 0.65 mg/mL magnesium chloride, 0.8 units/mL of glucose-6-phosphate dehydrogenase (prediluted with 5 mM citrate buffer), 10 μM compound and 1 mg/ml microsomal protein. Compounds are incubated at 37° C. in duplicates and samples are taken after 0, 20 and 60 minutes. After acetonitrile precipitation (2 volumes) and HPLC/MS/MS analysis metabolic turnover is expressed in % of the initial 0 minutes value and half life T½ (min) is calculated. Verapamil for human and propranolol for mouse are used as reference and are assayed with every experimental set.

[3] = Metabolic stability assay, CD-1 mouse microsomes; format: in vitro ADME; conditions: CD-1, mouse, microsomes; for Metabolic Stability T½ [min] mouse / Metabolic Stability 60 min mouse [% remain.]: both, 10 µM; for Metabolic Stability 60 min mouse [% remain.]: 1 h; for half-life at 10 µM: both sexes
Experimental: as §1, §2, §3, §4

in vitro [4] = format: in vitro ADME, mouse; conditions: both, CD-1, mouse, plasma, 10 µM; for Plasma Stability 240 min mouse [% remain.]: 4 h
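For Plasma Stability 240 min mouse [% remain.] in this document: sodium citrate stabilized mouse plasma, parent compound quantified by HPLC/MS/MS relative to its peak area at time zero, run in triplicate.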
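For Plasma Stability T½ [min] mouse in this document: sodium citrate stabilized mouse plasma, parent compound quantified by HPLC/MS/MS relative to its peak area at time zero, run in triplicate.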

SMILES	Plasma Stability T½ [min] hum (in vitro [1]) [min]	Plasma Stability 240 min hum [% remain.] (in vitro [1])	Metabolic Stability T½ [min] hum [2] [min]	Metabolic Stability 60 min hum [% remain.] [2] [% remain.]	Metabolic Stability T½ [min] mouse [3] [min]	Metabolic Stability 60 min mouse [% remain.] [3] [% remain.]	Plasma Stability T½ [min] mouse (in vitro [4]) [min]	Plasma Stability 240 min mouse [% remain.] (in vitro [4])	half-life at 10 µM [2] [h]	half-life at 10 µM [3] [h]
CN1CCC[C@H](N2CCN(S(C)(=O)=O)CC2)C(=O)N2C[C@@H](O)C[C@H]2COc2cccc(c2)C1=O [Ex. 583, (4S,6S,10S)-6-hydroxy-14-methyl-10-[4-(methylsulfonyl)piperazino]-2-oxa-8,14-diazatricyclo[14.3.1.0^4,8]icosa-1(20),16,18-triene-9,15-dione]	> 240	91	> 60	100	> 60	95	> 240	83	–	–
CN1CC(=O)N2C[C@H](NC(=O)CCc3ccncc3)C[C@H]2COc2ccc(cc2)C(=O)N(C)[C@H](C(=O)NCc2ccc3ccccc3c2)CCC1=O [Ex. 260, (4S,6R,15S)-11,16-dimethyl-N-(2-naphthylmethyl)-9,12,17-trioxo-6-{[3-(4-pyridinyl)propanoyl]amino}-2-oxa-8,11,16-triazatricyclo[16.2.2.0^4,8]docosa-1(20),18,21-triene-15-carboxamide]	> 240	100	–	19	> 60	69	> 240	100	0.617	–
CCCCC(=O)N[C@@H]1C[C@H]2COc3ccc(F)cc3C(=O)N(C)[C@H](C(=O)N(C)CCN(C)C)CCC(=O)N(C)CC(=O)N2C1 [Ex. 78, (2R,11S,19aS)-N-[2-(dimethylamino)ethyl]-15-fluoro-N,7,12-trimethyl-5,8,13-trioxo-2-(pentanoylamino)-2,3,6,7,8,9,10,11,12,13,19, 19a-dodecahydro-1H,5H-pyrrolo[2,1-c][1,4,7,12]benzoxatriazacyclopentadecine-11-carboxamide]	> 240	65	> 60	78	> 60	100	> 240	100	–	–
CNC(=O)[C@H]1CCC(=O)N(C)CC(=O)N2C[C@@H](NC(=O)Cc3ccc4ccccc4c3)C[C@H]2COc2ccc(F)cc2C(=O)N1C [Ex. 93, (2S,11R,19aS)-15-fluoro-N,7,12-trimethyl-2-{[2-(2-naphthyl)acetyl]amino}-5,8,13-trioxo-2,3,6,7,8,9,10,11,12, 13,19,19a-dodecahydro-1H,5H-pyrrolo[2,1-c][1,4,7,12] benzoxatriazacyclopentadecine-11-carboxamide]	> 240	100	–	1	–	15	> 240	100	0.4	0.483
CN1CC(=O)N2C[C@@H](NC(=O)CN3CCCC3)C[C@H]2COc2ccc(F)cc2C(=O)N(C)[C@@H](C(=O)N2CCCC2)CCC1=O [Ex. 98, N-[(2S,11R,19aS)-15-fluoro-7,12-dimethyl-5,8,13-trioxo-11-(1-pyrrolidinylcarbonyl)-2,3,6,7,8,9, 10,11,12,13,19,19a-dodecahydro-1H,5H-pyrrolo[2,1-c][1,4,7,12]benzoxatriazacyclopentadecin-2-yl]-2-(1-pyrrolidinyl)acetamide]	> 240	100	> 60	97	> 60	100	> 240	78	–	–
CN(C)CC(=O)N[C@@H]1C[C@H]2COc3cccc(c3)C(=O)N(C)C[C@H](NC(=O)Cc3ccc4ccccc4c3)C(=O)N(C)CC(=O)N2C1 [Ex. 230, 2-(dimethylamino)-N-[(4S,6R,13S)-11,15-dimethyl-13-{[2-(2-naphthyl)acetyl]amino}-9,12,16-trioxo-2-oxa-8,11,15-triazatricyclo[15.3.1.0^4,8]henicosa-1(21),17,19-trien-6-yl]acetamide]	> 240	100	> 60	61	> 60	90	> 240	95	–	–
CC(C)CN1C[C@H]2C[C@H]1COc1ccc(F)cc1C(=O)N(C)CCC[C@H](NC(=O)Cc1ccccc1)C(=O)N2 [Ex. 407, N-[(1S,15S,18R)-7-fluoro-20-isobutyl-11-methyl-10,16-dioxo-3-oxa-11,17,20-triazatricyclo[16.2.1.0^4,9]henicosa-4,6,8-trien-15-yl]-2-phenylacetamide]	> 240	80	–	47	> 60	84	> 240	98	0.85	–
CC(=O)N[C@H]1CN(C)C(=O)c2cccc(c2)OC[C@@H]2C[C@H](NC(=O)CN(C)C)CN2C(=O)CN(C)C1=O [Ex. 208, N-[(4S,6S,13S)-13-(acetylamino)-11,15-dimethyl-9,12,16-trioxo-2-oxa-8,11,15-triazatricyclo[15.3.1.0^4,8]henicosa-1(21),17,19-trien-6-yl]-2-(dimethylamino)acetamide]	> 240	98	> 60	84	> 60	100	> 240	90	–	–
CCCCC(=O)N[C@H]1C[C@H]2COc3ccc(F)cc3C(=O)N(C)[C@@H](C(=O)NCc3ccc4ccccc4c3)CCC(=O)N(C)CC(=O)N2C1 [Ex. 103, (2S,11R,19aS)-15-fluoro-7,12-dimethyl-N-(2-naphthylmethyl)-5,8,13-trioxo-2-(pentanoylamino)-2,3,6,7,8,9, 10,11,12,13,19,19a-dodecahydro-1H,5H-pyrrolo[2,1-c][1,4,7,12] benzoxatriazacyclopentadecine-11-carboxamide]	–	97	–	22	–	25	–	75	0.583	0.6
CN1CC(=O)N2C[C@H](NC(=O)CCC(=O)O)C[C@H]2COc2ccc(cc2)C(=O)N(C)[C@H](C(=O)NCc2ccncc2)CCC1=O [Ex. 267, 4-{[(4S,6R,15S)-11,16-dimethyl-9,12,17-trioxo-15-{[(4-pyridinylmethyl)amino]carbonyl}-2-oxa-8,11,16-triazatricyclo[16.2.2.0^4,8]docosa-1(20),18,21-trien-6-yl]amino}-4-oxobutanoic acid]	> 240	75	> 60	99	> 60	100	> 240	79	–	–
CN1CCC[C@H](N)C(=O)N2C[C@@H](OCc3ccc(-c4cccnc4)cc3)C[C@H]2COc2cccc(c2)C1=O [Ex. 578, (4S,6S,10S)-10-amino-14-methyl-6-{[4-(3-pyridinyl)benzyl]oxy}-2-oxa-8,14-diazatricyclo[14.3.1.0^4,8]icosa-1(20),16,18-triene-9,15-dione]	> 240	100	–	46	> 60	55	> 240	86	0.867	–
